The subject of test [1] is human neutrophils. In words: Neutrophil degranulation: release of vitamin B12 binding protein. Format: cell-based. The note with it: 20 μg/ml. On the procedure: (§1) The activation of human neutrophils by nitro compounds was assessed by the ability to stimulate superoxide production (chemiluminescence response) and release of lysosomal enzymes from specific and azurophilic granules. Neutrophils were prepared from whole blood taken from normal healthy volunteers by the rapid-single step procedure^(41). Briefly, blood anticoagulated with heparin was carefully layered on a hypaque-ficoll medium of 1.114 g/ml and centrifuged in swing-out-buckets at 200 g/30 min. The leukocytes were resolved into two bands and the erythrocytes sedimented at the bottom of the tube. The second leukocyte band approximately 0.7 cm from the mononuclear cell containing band at the interface contained neutrophils of >98% purity and >99% viability (trypan blue dye exclusion criteria). The neutrophils were carefully harvested with a pasteur pipette, and washed and resuspended in tissue culture medium. The respiratory burst response of neutrophils was assessed by measuring superoxide production by the lucigenin dependent chemiluminescence assay essentially as described previously^(42). Briefly, 1×10^6 neutrophils (100 μl) in HBSS were treated with the nitro analogues of fatty acids (100 μl), then lucigenin was added and the volume made up. […]

Test [2] deals with 5-LO. In words: Effect on 5-LO catalysed oxidation of arachidonic acid. Format: biochemical.
Test [3] has as its system human neutrophils. Briefly: Neutrophil degranulation: release of β-glucuronidase. Format: cell-based. The note with it: 20 μg/ml. On the procedure: as §1
Test [4] deals with T1, 15-LO (Glycine max, UniProt P08170).
T1 construct: purchased Sigma Chemical Company
T1 sequence (P08170 1-839): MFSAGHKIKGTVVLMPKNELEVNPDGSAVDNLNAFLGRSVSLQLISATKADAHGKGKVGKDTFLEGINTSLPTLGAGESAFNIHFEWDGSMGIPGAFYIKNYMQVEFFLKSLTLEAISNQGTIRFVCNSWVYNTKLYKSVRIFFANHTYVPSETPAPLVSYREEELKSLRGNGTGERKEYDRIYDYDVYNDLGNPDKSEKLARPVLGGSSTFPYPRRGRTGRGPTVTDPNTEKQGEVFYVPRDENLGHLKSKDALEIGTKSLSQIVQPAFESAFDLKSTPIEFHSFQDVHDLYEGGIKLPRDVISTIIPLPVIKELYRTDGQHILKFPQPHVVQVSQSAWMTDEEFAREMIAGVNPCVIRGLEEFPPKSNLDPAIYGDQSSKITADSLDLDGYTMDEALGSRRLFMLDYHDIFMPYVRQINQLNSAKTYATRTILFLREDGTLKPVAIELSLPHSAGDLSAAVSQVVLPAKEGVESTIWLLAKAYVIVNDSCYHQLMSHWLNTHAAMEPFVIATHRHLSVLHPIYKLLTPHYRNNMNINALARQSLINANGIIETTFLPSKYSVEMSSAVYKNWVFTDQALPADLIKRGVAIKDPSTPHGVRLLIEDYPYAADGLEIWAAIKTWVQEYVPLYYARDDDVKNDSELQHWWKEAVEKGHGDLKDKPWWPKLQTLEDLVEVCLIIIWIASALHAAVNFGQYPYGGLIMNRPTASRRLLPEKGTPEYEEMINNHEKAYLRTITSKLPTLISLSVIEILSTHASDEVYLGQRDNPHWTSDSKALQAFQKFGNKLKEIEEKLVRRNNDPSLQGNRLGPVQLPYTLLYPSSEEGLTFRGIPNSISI
In words: 15-LO catalysed oxidation of the nitro compounds (substrate test). Format: biochemical, soybean. The note with it: for Substrate for 15-LO: pH 9.0 buffer, UV 234 nm. As for the experimental part:
(§2) Based on this consideration, 5-LO, 12-LO and 15-LO catalysed oxidation of the nitro compounds (4a, 4b, 6a, 6b, 8a and 8b) was investigated. Each of the nitro compounds was treated with 15-LO in pH 9.0 buffer (or 5-LO in pH 6.3 buffer and 12-LO in pH 7.4 buffer), and the formation of 15-hydroperoxy derivatives (or 5-hydroperoxy or 12-hydroperoxy derivatives) over time was monitored by UV spectroscopy at 234 nm.

Test [5] concerns the target T1, 15-LO. In words: Effect on 15-LO catalysed oxidation of arachidonic acid. It counts as biochemical, soybean.
Test [6] deals with 5-LO. Briefly: 5-LO catalysed oxidation of the nitro compounds (substrate test). The note with it: pH 6.3 buffer, UV 234 nm. It counts as biochemical. As for the experimental part:
as §2

As for `CCCCC/C=C\C/C=C\C/C=C\C/C=C\CCCC(CCC(=O)O)[N+](=O)[O-]` (stereo not shown) [Lx7, (a11-Z)-4-Nitrotricosa-8,11,14,17-tetraenoic acid], the “Release of vitamin B12 binding protein (specific granule marker)” value with human neutrophils [1] is “as potent as 20:4n-6 and 22:6n-3”. In the test with 5-LO [2], the “Effect on 5-LO catalysed oxidation of AA” value was “Activatory”. Also, in the test on human neutrophils [3], the “Release of β-glucuronidase (azurophilic granule marker)” value was “as potent as 20:4n-6 and 22:6n-3”. Besides, the “Vmax for 15-LO catalysed oxidation of the compound” value is “Vmax = 24.48 μM/min” at 15-LO [4] (Lineweaver Burke) and 24.48 µM/min on 15-LO [4] (Lineweaver Burke, listed as 6b). Further, at 15-LO [4] (Lineweaver Burke, read-out: Km for 15-LO catalysed oxidation of the compound), the Km was found to be 8.4 µM. The entries for the “Substrate for 15-LO” value on 15-LO [4] (listed as 6b) and on 15-LO [4] (listed as (all-Z)-4-nitrotricosa-8,11,14,17-tetraenoic acid) were “substrate” and “good substrate”, respectively. At 15-LO [5], the “Effect on 15-LO catalysed oxidation of AA” value was “Substrate”. Besides, in the test with 5-LO [6], the “Substrate for 5-LO” value is listed as “not for 5-LO”.
